The IC50 is the concentration that inhibits the measured activity by half. A word on the MIC: it is the lowest concentration found to suppress growth. High values mean weaker potency, low ones greater potency.

≈ marks a conversion by molar mass, not a printed value. Where “and” joins values, the source holds several entries; their conditions need not be identical. Equal values may be shown once. Where a name gives a salt, the structure may show the parent alone. Read-outs that look alike come from different tables or passages of the source.

The target of assay [1] is T1, 2,3-epoxysqualene-lanosterol cyclase (Candida albicans, UniProt Q04782).
T1 construct: there was obtained a cell-free extract (CFE) as the supernatant; endogenous in cells; host or cells: Candida albicans culture, protoplasts ruptured, cell-free extract (10000 g supernatant)
Put plainly: inhibition of 2,3-epoxysqualene-lanosterol cyclase from Candida albicans (cell-free extract, 14C-squalene epoxide). The assay is classed as biochemical.

A further assay deals with C. albicans H29. Put plainly: agar dilution method, C. albicans H29. The assay is classed as cell-based, Candida albicans.
Another assay deals with C. albicans B5. Put plainly: agar dilution method, C. albicans B5. In kind it is cell-based, Candida albicans. A general note: In agar dilution, organisms are placed on agar that contains the substance at set levels.
Another assay has as its system C. albicans 3153. Put plainly: agar dilution method, C. albicans 3153. The assay is classed as cell-based, Candida albicans.
Another assay relates to C. albicans B4. Kind of assay: agar dilution method, C. albicans B4. The assay is classed as cell-based, Candida albicans.
The next assay has as its system C. albicans H12. Kind of assay: agar dilution method, C. albicans H12. The assay is classed as cell-based, Candida albicans.
[2] abbreviates: cell-free extract, pH 6.9, 30° C., 1 hour, read-out: IC50 (converted).
[3] abbreviates: in combination with compound 14.
Where [4] appears, read: in combination with compound 20.

T1 sequence (Q04782 whole entry): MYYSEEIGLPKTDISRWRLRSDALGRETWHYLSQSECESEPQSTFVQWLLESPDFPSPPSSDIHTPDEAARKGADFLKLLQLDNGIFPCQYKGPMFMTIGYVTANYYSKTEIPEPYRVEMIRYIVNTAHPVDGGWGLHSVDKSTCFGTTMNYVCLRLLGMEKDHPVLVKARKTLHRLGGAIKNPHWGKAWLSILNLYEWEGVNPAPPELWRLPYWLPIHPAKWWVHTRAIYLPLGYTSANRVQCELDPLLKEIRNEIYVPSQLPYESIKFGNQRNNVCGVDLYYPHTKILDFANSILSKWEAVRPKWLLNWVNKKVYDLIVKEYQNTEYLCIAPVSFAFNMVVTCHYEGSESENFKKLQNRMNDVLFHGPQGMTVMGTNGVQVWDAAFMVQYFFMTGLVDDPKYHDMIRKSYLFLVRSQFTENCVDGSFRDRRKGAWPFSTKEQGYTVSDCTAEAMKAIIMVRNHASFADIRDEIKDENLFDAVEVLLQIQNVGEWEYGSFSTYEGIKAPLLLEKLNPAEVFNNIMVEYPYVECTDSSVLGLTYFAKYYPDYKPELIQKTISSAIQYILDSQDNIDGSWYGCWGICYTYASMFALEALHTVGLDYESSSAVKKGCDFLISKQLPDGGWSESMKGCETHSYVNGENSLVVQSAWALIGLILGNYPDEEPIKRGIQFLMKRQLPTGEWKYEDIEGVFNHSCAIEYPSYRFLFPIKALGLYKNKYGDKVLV

Regarding `C=CCN(C)Cc1ccc(-c2ccc(C(=O)c3ccc(F)cc3F)cc2)cc1` [Compound 31, 2,4-difluorophenyl 4'-[(allylmethylamino)methyl]-4-biphenylyl ketone], in assay [1], the IC50 was 21.2 nM.

`C=CCN(C)Cc1ccc(-c2ccc(C(=O)CCCCC)cc2)cc1` [Compound 38, 4'-[(allylmethylamino)methyl]-4-biphenylyl pentyl ketone hydrochloride]: the midpoint of inhibition in assay [1], the IC50, lay at 62.6 nM.

Take `C=CCN(C)Cc1ccc(-c2ccc(C(=O)c3ccccc3C)cc2)cc1` [Compound 33]: in assay [1] (setting [2]), the half-maximal inhibitory concentration (IC50) is 33.8 nM.

Regarding `CN(C)Cc1ccc(-c2ccc(C(=O)c3ccc(Br)cc3)cc2)cc1` [Compound 6, p-Bromophenyl 4'-[(dimethylamino)methyl]-4-biphenylyl ketone hydrochloride], in assay [1] (setting [2]), the half-inhibitory concentration (IC50) was 102 nM.

With `C=CCN(C)Cc1ccc(-c2ccc(C(=O)c3ccc(F)cc3)cc2)cc1` [Compound 15, 4'-[(Allylmethylamino)methyl]-4-biphenylyl p-fluorophenyl ketone hydrochloride], the IC50 in assay [1] was 100 nM.

Regarding `CN(C)Cc1ccc(-c2ccc(C(=O)c3ccc(I)cc3)cc2)cc1` [Compound 10, 4'-[(Dimethylamino)methyl]-4-biphenylyl p-iodophenyl ketone hydrochloride], the IC50 in assay [1] (setting [2]) was 98.4 nM.

Consider `CN(C)Cc1ccc(-c2ccc(C(=O)c3ccc(C#N)cc3)cc2)cc1` [Compound 11, p-[[(4'-[(Dimethylamino)methyl]-4-biphenylyl]carbonyl]-benzonitrile hydrochloride], for which, in assay [1] (setting [2]), the half-maximal inhibitory concentration (IC50) is 170 nM.

With `CNCc1ccc(-c2ccc(C(=O)c3ccccc3)cc2)cc1` [Compound 26, 4'-[(Methylamino)methyl]-4-biphenylyl phenyl ketone hydrochloride], in assay [1] (setting [2]), the IC50 is 592 nM.

Consider `C=CCN(C)Cc1ccc(-c2ccc(C(=O)c3ccc4ccccc4c3)cc2)cc1` [Compound 23, 4'-[(Allylmethylamino)methyl]-4-biphenylyl 2-naphthyl ketone hydrochloride], for which the IC50 in assay [1] is 409 nM.

For `C=CCN(C)Cc1ccc(-c2ccc(C(=O)CCC=C(C)C)cc2)cc1` [Compound 39, 4'-[(allylmethylamino)methyl]-4-biphenylyl 4-methyl-3-pentenyl ketone], it took 25.9 nM to reach half-maximal inhibition in assay [1] (IC50).

As for `CN(C)Cc1ccc(-c2ccc(C(=O)CCCCCCCCO)cc2)cc1` [Compound 37, 4'-[(dimethylamino)methyl]-4-biphenylyl 8-hydroxyoctyl ketone hydrochloride], the IC50 in assay [1] (setting [2]) is 42.1 nM.

On to `CN(C)Cc1ccc(-c2ccc(C(=O)c3ccc(F)cc3)cc2)cc1` [Compound 3, 4'-[(Dimethylamino)methyl]-4-biphenyl p-fluorophenyl ketone hydrochloride], for which the IC50 in assay [1] (setting [2]) is 300 nM.

As to `CCCCCC(=O)c1ccc(-c2ccc(CN(C)C)cc2)cc1` [Compound 35, 4'-[(dimethylamino)-methyl]-4-biphenylyl pentyl ketone hydrochloride], the IC50 in assay [1] (setting [2]) is 89.6 nM.

In the case of `C=CCN(C)C(C)c1ccc(-c2ccc(C(=O)c3ccccc3)cc2)cc1` (racemic) [Compound 18, rac-4'-[1-(Allylmethylamino)ethyl]-4-biphenylyl phenyl ketone hydrochloride], the IC50 in assay [1] was 90 nM.

Regarding `C=CCN(C)Cc1ccc(-c2ccc(C(=O)CCCCCCCCO)cc2)cc1` [Compound 40, 4'-[(allylmethylamino)methyl]-4-biphenylyl 8-hydroxyoctyl ketone fumarate], in assay [1], inhibition was half-maximal at 17.8 nM (IC50).

As to `CN(C)Cc1ccc(-c2ccc(C(=O)c3ccc(Cl)cc3Cl)cc2)cc1` [Compound 4, 2,4-dichlorophenyl 4'-[(dimethylamino)methyl]-4-biphenyl ketone hydrochloride], the IC50 in assay [1] (setting [2]) was 200 nM.

For the compound `CC(c1ccc(-c2ccc(C(=O)c3ccccc3)cc2)cc1)N(C)C` (racemic) [Compound 2, rac-4'-[1-(dimethylamino)ethyl]-4-biphenylyl phenyl ketone hydrochloride], in assay [1] (setting [2]), the concentration for half-maximal inhibition (IC50) is 219 nM.

In the case of `C=CCN(C)Cc1ccc(-c2ccc(C(=O)c3ccc(C#N)cc3)cc2)cc1` [Compound 19, p-[[4'-[(Allylmethylamino)methyl]-4-biphenylyl]carbonyl]-benzonitrile hydrochloride], the midpoint of inhibition in assay [1], the IC50, lay at 109 nM.

As to `C=CCN(C)Cc1ccc(-c2ccc(C(=O)c3ccc(Cl)cc3Cl)cc2Cl)cc1` [Compound 21], the half-maximal inhibitory concentration (IC50) in assay [1] (setting [2]) is 58.5 nM.

As to `C=CCN(C)Cc1ccc(-c2ccc(C(=O)c3ccc(Br)cc3Br)cc2)cc1` [Compound 28], the 50% inhibitory concentration (IC50) in assay [1] (setting [2]) is 40.1 nM.

Consider `C=CCN(C)Cc1ccc(-c2ccc(C(=O)c3cccc4ccccc34)cc2)cc1` [Compound 22, 4'-[(Allylmethylamino)methyl]-4-biphenylyl 1-naphthyl ketone hydrochloride], for which the IC50 in assay [1] was 434 nM.

For the compound `COc1ccccc1C(=O)c1ccc(-c2ccc(CN(C)C)cc2)cc1` [Compound 29], in assay [1] (setting [2]), the IC50 is 550 nM.

On to `CN(C)Cc1ccc(-c2ccc(C(=O)c3ccc(Cl)cc3Cl)cc2Cl)cc1` [Compound 7], for which, in assay [1] (setting [2]), the 50% inhibitory concentration (IC50) was 239 nM.

Consider `CN(C)Cc1ccc(-c2ccc(C(=O)c3ccc(F)cc3F)cc2)cc1` [Compound 30], for which the IC50 in assay [1] (setting [2]) is 82.5 nM.

Turning to `CC(C)=CCCC(=O)c1ccc(-c2ccc(CN(C)C)cc2)cc1` [Compound 36, 4'-[(dimethylamino)methyl]-4-biphenylyl 4-methyl-3-pentenyl ketone hydrochloride], in assay [1] (setting [2]), the IC50 was 8.38 nM.

Take `CN(C)Cc1ccc(-c2ccc(C(=O)c3ccc([N+](=O)[O-])cc3Cl)cc2)cc1` [Compound 8, 2-Chloro-4-nitrophenyl 4'-[(dimethylamino)methyl]-4-biphenyl ketone hydrochloride]: in assay [1] (setting [2]), the IC50 was 111 nM.

As to `CN(C)Cc1ccc(-c2ccc(C(=O)c3ccc([N+](=O)[O-])cc3)cc2)cc1` [Compound 5, 4'-[(Dimethylamino)methyl]-4-biphenylyl p-nitrophenyl ketone hydrochloride], in assay [1] (setting [2]), the IC50 was 290 nM.

For `CCN(C)Cc1ccc(-c2ccc(C(=O)c3ccccc3)cc2)cc1` [Compound 25, 4'-[Ethylmethylamino)methyl]-4-biphenylyl phenyl ketone hydrochloride], the half-maximal inhibitory concentration (IC50) in assay [1] (setting [2]) was 137 nM.

As to `C=CCN(C)Cc1ccc(-c2ccc(C(=O)c3ccccc3C)cc2)cc1` [Compound 34], in assay [1] (setting [2]), the half-maximal inhibitory concentration (IC50) was 50.6 nM.

In the case of `C=CCN(C)Cc1ccc(-c2ccc(C(=O)c3ccc([N+](=O)[O-])cc3Cl)cc2)cc1` [Compound 24, 4'-[[(Allylmethylamino)methyl]-4-biphenylyl 2-chloro-4-nitrophenyl ketone hydrochloride], the concentration for half-maximal inhibition (IC50) in assay [1] (setting [2]) was 26.1 nM.

Turning to `C=CCN(C)Cc1ccc(-c2ccc(C(=O)c3ccc(Cl)cc3Cl)cc2)cc1` [Compound 16, 2,4-dichlorophenyl 4'-(allylmethylamino)-methyl]-4-biphenylyl ketone hydrochloride], the IC50 in assay [1] (setting [2]) is 39 nM.

With `C=CCN(C)Cc1ccc(-c2ccc(C(=O)c3ccc([N+](=O)[O-])cc3)cc2)cc1` [Compound 17], the 50% inhibitory concentration (IC50) in assay [1] (setting [2]) was 41.4 nM.

Regarding `CN(C/C=C/C#CC(C)(C)C)Cc1cccc2ccccc12` [terbinafine, reference compound], the “MIC of sterol biosynthesis inhibitor in combination” value in the assay on C. albicans H29 (setting [3]) is 3.0 µg/mL; in the assay on C. albicans H29 (setting [4]), 0.75 µg/mL; in the assay with C. albicans B5 (setting [3]), 3.0 µg/mL; in the assay with C. albicans B5 (setting [4]), 0.7 µg/mL; in the assay with C. albicans 3153 (setting [3]), 3.0 µg/mL and 1.5 µg/mL; in the assay with C. albicans 3153 (setting [4]), 1.50 µg/mL. The “MIC of sterol biosynthesis inhibitor in combination” value is 3.0 µg/mL in the assay on C. albicans B4 (setting [3]), 1.5 µg/mL in the assay with C. albicans B4 (setting [4]), 1.5 µg/mL with C. albicans H12 (setting [3]) and 0.75 µg/mL with C. albicans H12 (setting [4]). In the assay on C. albicans B4 (Candida albicans, B4, 48 h, alone, 37° C., 2 days), this compound had an MIC of 100 µg/mL (≈ 343 µM).

Turning to `Cc1ccccc1C(=O)c1ccc(-c2ccc(CN(C)C)cc2)cc1` [Compound 32], the concentration for half-maximal inhibition (IC50) in assay [1] (cell-free extract, pH 6.9, 30° C., 1 hour) is 0/03.

As to `CN(C)Cc1ccc(-c2ccc(C(=O)c3cccc4ccccc34)cc2)cc1` [Compound 12, 4'-[(Dimethylamino)methyl]-4-biphenylyl 1-naphthyl ketone hydrochloride], in assay [1] (setting [2]), the IC50 was 771 nM.

As for `CN(C)Cc1ccc(-c2ccc(C(=O)c3ccc(Br)cc3Br)cc2)cc1` [Compound 27], in assay [1] (setting [2]), the IC50 was 50.7 nM.

As for `CN(C)Cc1ccc(-c2ccc(C(=O)c3ccccc3)cc2)cc1` [Compound 1, 4'-[(dimethylamino)methyl]-4-biphenylyl phenyl ketone hydrochloride], the IC50 in assay [1] (setting [2]) was 284 nM.

With `CN(C)C(C)(C)c1ccc(-c2ccc(C(=O)c3ccccc3)cc2)cc1` [Compound 9, 4'-[1-(dimethylamino)-1-methylethyl]-4-biphenylyl phenyl ketone hydrochloride], in assay [1] (setting [2]), the IC50 is 2500 nM.

On to `CN(C)Cc1ccc(-c2ccc(C(=O)c3ccc4ccccc4c3)cc2)cc1` [Compound 13, 4'-[(Dimethylamino)methyl]-4-biphenylyl 2-naphthyl ketone hydrochloride], for which the concentration for half-maximal inhibition (IC50) in assay [1] (setting [2]) was 522 nM.

Values taken from patent publication US5239084A, “Substituted aminoalkyl biphenyl compounds” (Hoffmann-La Roche Inc., priority 1990, dated 1993).
